Data set [1] can be described thus: Cytotoxicity test in HEp-2 cells (CCK8 cell viability). It is filed as cell-based. The conditions noted are these: human; HEp-2 cells, CCK8, 1 day; read-out: CC50. The essentials:
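Compound dilutions (final DMSO 0.5%) were applied for 1 day to HEp-2 cells plated at 30,000 per well the day before. CCK8 signal gave survival relative to cell and medium controls, and a four-parameter log(inhibitor)-response fit yielded CC50.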

The next data set relates to RSV A long virus strain. The format is cell-based. The conditions noted are these: RSV A long virus strain, HEp-2 cells, plaque reduction, 1 day; read-out: IC50. The essentials: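 Plaque reduction in HEp-2 cells: virus (100 PFU/well) and serially diluted compound (8 concentrations) mixed 1 h, adsorbed 2 h, then overlaid with 0.8% CMC medium plus compound for 1 day at 37 °C. Spots counted after anti-RSV immunostaining; IC50 from normalized inhibition, CC50 from viability data.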

Where a SMILES comes first, the peptide text is derived from it. The star is where a group is joined. X1 = CC(C)CCCC(C)C1CCC2C3CC=C4CC(OC(=O)CCC(=O)*)CCC4(C)C3CCC12C Where only a bound is given, the exact number is not on record here.

For orientation: CC50 means the concentration giving 50% cytotoxicity. One may read the IC50 as the concentration that gives 50% inhibition. On to `CC[C@H](C)[C@H](NC(C)=O)C(=O)N[C@@H](CC(C)C)C(=O)N[C@@H](CCC(=O)O)C(=O)N[C@@H](CC(C)C)C(=O)N[C@H](C(=O)N[C@@H](CC(N)=O)C(=O)N[C@@H](CCCCN)C(=O)N[C@@H](CCCCN)C(=O)N[C@H](C(=O)N[C@@H](CCC(=O)O)C(=O)N[C@@H](CCC(N)=O)C(=O)N[C@@H](CO)C(=O)N[C@@H](CC(C)C)C(=O)N[C@@H](CCCCN)C(=O)N[C@@H](Cc1ccccc1)C(=O)N[C@H](C(=O)N[C@@H](CCC(=O)O)C(=O)N[C@@H](CCCCN)C(=O)N[C@@H](CO)C(=O)N[C@@H](CC(=O)O)C(=O)N[C@@H](CCCCN)C(=O)N[C@@H](CC(C)C)C(=O)N[C@@H](CC(C)C)C(=O)N[C@@H](CCC(=O)O)C(=O)N[C@@H](CC(N)=O)C(=O)N[C@@H](CCC(=O)O)C(=O)N[C@@H](C)C(=O)N[C@@H](C)C(=O)N[C@@H](C)C(=O)N[C@@H](CCCCN)C(=O)N[C@@H](CCCCNC(=O)CCC(=O)OC1CCC2(C)C(=CCC3C2CCC2(C)C(C(C)CCCC(C)C)CCC32)C1)C(N)=O)[C@@H](C)CC)[C@@H](C)CC)C(C)C` (some centres unmarked) [Compound 32] (Ac-ILELVNKKIEQSLKFIEKSDKLLENEAAAKK(X1)-NH2), for which the CC50 at 1 day in data set [1] was more than 8 µM. In addition, the IC50 in the data set on RSV A long virus strain is 0.296 µM.
On the same counts, the results for `CC[C@H](C)[C@H](NC(=O)[C@H](CCCCN)NC(=O)[C@H](CCCCN)NC(=O)[C@H](CC(N)=O)NC(=O)[C@@H](NC(=O)[C@H](CCC(N)=O)NC(=O)[C@H](CCC(=O)O)NC(=O)[C@H](CC(C)C)NC(=O)[C@H](CO)NC(C)=O)C(C)C)C(=O)N[C@@H](CC(N)=O)C(=O)N[C@@H](CCC(N)=O)C(=O)N[C@@H](CO)C(=O)N[C@@H](CC(C)C)C(=O)N[C@@H](CCCCN)C(=O)N[C@H](C(=O)N[C@@H](CC(N)=O)C(=O)N[C@@H](CCCCN)C(=O)N[C@@H](CCCCN)C(=O)N[C@@H](CO)C(=O)N[C@@H](CC(=O)O)C(=O)N[C@@H](CCCCN)C(=O)N[C@@H](CC(C)C)C(=O)N[C@@H](CC(C)C)C(=O)N[C@@H](CCC(=O)O)C(=O)N[C@@H](CC(N)=O)C(=O)N[C@@H](CCC(=O)O)C(=O)N[C@@H](C)C(=O)N[C@@H](C)C(=O)N[C@@H](C)C(=O)N[C@@H](CCCCN)C(=O)N[C@@H](CCCCNC(=O)CCC(=O)OC1CCC2(C)C(=CCC3C2CCC2(C)C(C(C)CCCC(C)C)CCC32)C1)C(N)=O)C(C)C` (some centres unmarked) [Compound 33] (Ac-SLEQVNKKINQSLKVNKKSDKLLENEAAAKK(X1)-NH2) are more than 8 µM and 5.04 µM.
On the same counts, the results for `CC[C@H](C)[C@H](NC(=O)[C@H](CCC(=O)O)NC(=O)[C@H](CCC(=O)O)NC(=O)[C@H](CC(C)C)NC(=O)[C@H](CO)NC(=O)[C@H](CCC(N)=O)NC(=O)[C@H](CC(N)=O)NC(=O)[C@@H](NC(=O)[C@H](CCCCN)NC(=O)[C@H](CC(C)C)NC(=O)[C@H](CO)NC(=O)[C@H](CCC(N)=O)NC(=O)[C@H](CCC(=O)O)NC(=O)[C@@H](NC(=O)[C@H](CCCCN)NC(=O)[C@H](CCCCN)NC(=O)[C@H](CC(N)=O)NC(=O)[C@@H](NC(=O)[C@H](CCC(=O)O)NC(=O)[C@H](CCC(=O)O)NC(=O)[C@H](CC(=O)O)NC(=O)[C@H](Cc1ccccc1)NC(C)=O)C(C)C)[C@@H](C)CC)[C@@H](C)CC)C(=O)N[C@@H](CCCNC(=N)N)C(=O)N[C@@H](CCCCN)C(=O)N[C@@H](CO)C(=O)N[C@@H](CCC(=O)O)C(=O)N[C@@H](C)C(=O)N[C@@H](C)C(=O)N[C@@H](C)C(=O)N[C@@H](CCCCN)C(=O)N[C@@H](CCCCNC(=O)CCC(=O)OC1CCC2(C)C(=CCC3C2CCC2(C)C(C(C)CCCC(C)C)CCC32)C1)C(N)=O` (some centres unmarked) [Compound 34] (Ac-FDEEVNKKIEQSLKINQSLEEIRKSEAAAKK(X1)-NH2) are 1.5 µM and more than 2 µM.
Consider `CC[C@H](C)[C@H](NC(=O)[C@H](CO)NC(C)=O)C(=O)N[C@@H](CO)C(=O)N[C@@H](CCC(N)=O)C(=O)N[C@H](C(=O)N[C@@H](CC(N)=O)C(=O)N[C@@H](CCC(=O)O)C(=O)N[C@@H](CCCCN)C(=O)N[C@H](C(=O)N[C@@H](CC(N)=O)C(=O)N[C@@H](CCC(=O)O)C(=O)N[C@H](C(=O)N[C@@H](CCC(N)=O)C(=O)N[C@@H](CO)C(=O)N[C@@H](CC(C)C)C(=O)N[C@@H](CCC(=O)O)C(=O)N[C@@H](CCC(=O)O)C(=O)N[C@@H](CCCCN)C(=O)N[C@@H](CO)C(=O)N[C@@H](CC(=O)O)C(=O)N[C@@H](CCCCN)C(=O)N[C@@H](CC(C)C)C(=O)N[C@@H](CC(C)C)C(=O)N[C@@H](CCCCN)C(=O)N[C@@H](CO)C(=O)N[C@@H](CCC(=O)O)C(=O)N[C@@H](C)C(=O)N[C@@H](C)C(=O)N[C@@H](C)C(=O)N[C@@H](CCCCN)C(=O)N[C@@H](CCCCNC(=O)CCC(=O)OC1CCC2(C)C(=CCC3C2CCC2(C)C(C(C)CCCC(C)C)CCC32)C1)C(N)=O)[C@@H](C)CC)[C@@H](C)CC)C(C)C` (some centres unmarked) [Compound 35] (Ac-SISQVNEKINEIQSLEEKSDKLLKSEAAAKK(X1)-NH2), for which the cytotoxic concentration (CC50) at 1 day in data set [1] stood at 5.1 µM. The IC50 in the data set with RSV A long virus strain worked out at 5.53 µM.
As to `CC[C@H](C)[C@H](NC(=O)[C@H](CCCCN)NC(=O)[C@H](CC(=O)O)NC(=O)[C@H](CO)NC(=O)[C@H](CCC(N)=O)NC(=O)[C@H](CCCCN)NC(=O)[C@H](CCCCN)NC(=O)[C@H](CC(C)C)NC(=O)[C@H](CO)NC(=O)[C@H](CCC(N)=O)NC(=O)[C@H](CCCCN)NC(=O)[C@H](CCC(=O)O)NC(=O)[C@H](CCC(=O)O)NC(=O)[C@H](CCC(=O)O)NC(=O)[C@@H](NC(=O)[C@H](CCCCN)NC(=O)[C@H](CCCCN)NC(=O)[C@H](CC(N)=O)NC(=O)[C@@H](NC(C)=O)C(C)C)[C@@H](C)CC)C(=O)N[C@@H](CCC(=O)O)C(=O)N[C@@H](CCC(=O)O)C(=O)N[C@@H](CO)C(=O)N[C@@H](CC(=O)O)C(=O)N[C@@H](CCC(=O)O)C(=O)N[C@@H](CC(N)=O)C(=O)N[C@@H](CCC(=O)O)C(=O)N[C@@H](C)C(=O)N[C@@H](C)C(=O)N[C@@H](C)C(=O)N[C@@H](CCCCN)C(=O)N[C@@H](CCCCNC(=O)CCC(=O)OC1CCC2(C)C(=CCC3C2CCC2(C)C(C(C)CCCC(C)C)CCC32)C1)C(N)=O` (some centres unmarked) [Compound 36] (Ac-VNKKIEEEKQSLKKQSDKIEESDENEAAAKK(X1)-NH2), in data set [1], the CC50 at 1 day is more than 8 µM. In addition, the IC50 in the data set with RSV A long virus strain turned out to be 6.82 µM.
As to `CC[C@H](C)[C@H](NC(=O)[C@H](CCCCN)NC(=O)[C@H](CCCCN)NC(=O)[C@H](CC(N)=O)NC(=O)[C@@H](NC(=O)[C@H](CC(C)C)NC(=O)[C@H](CCC(=O)O)NC(=O)[C@H](CC(=O)O)NC(=O)[C@H](Cc1ccccc1)NC(C)=O)C(C)C)C(=O)N[C@@H](CCC(=O)O)C(=O)N[C@@H](CCCCN)C(=O)N[C@H](C(=O)N[C@@H](CCC(=O)O)C(=O)N[C@@H](CCC(=O)O)C(=O)N[C@H](C(=O)N[C@@H](CC(N)=O)C(=O)N[C@@H](CCCCN)C(=O)N[C@@H](CCCCN)C(=O)N[C@@H](CO)C(=O)N[C@@H](CC(C)C)C(=O)N[C@@H](CCCCN)C(=O)N[C@@H](CC(C)C)C(=O)N[C@@H](CC(C)C)C(=O)N[C@@H](CCC(=O)O)C(=O)N[C@@H](CO)C(=O)N[C@@H](CCC(=O)O)C(=O)N[C@@H](C)C(=O)N[C@@H](C)C(=O)N[C@@H](C)C(=O)N[C@@H](CCCCN)C(=O)N[C@@H](CCCCNC(=O)CCC(=O)OC1CCC2(C)C(=CCC3C2CCC2(C)C(C(C)CCCC(C)C)CCC32)C1)C(N)=O)C(C)C)[C@@H](C)CC` (some centres unmarked) [Compound 37] (Ac-FDELVNKKIEKIEEVNKKSLKLLESEAAAKK(X1)-NH2), the 50% cytotoxic concentration (CC50) at 1 day in data set [1] was determined as 4 µM. In addition, the IC50 in the data set on RSV A long virus strain was found to be 5.23 µM.
As to `CC[C@H](C)[C@H](NC(=O)[C@H](CO)NC(=O)[C@H](C)NC(=O)[C@H](CC(=O)O)NC(=O)[C@H](Cc1ccccc1)NC(=O)[C@H](CCC(=O)O)NC(=O)[C@H](CC(=O)O)NC(=O)[C@H](Cc1c[nH]c2ccccc12)NC(C)=O)C(=O)N[C@@H](CO)C(=O)N[C@@H](CCC(N)=O)C(=O)N[C@@H](CC(N)=O)C(=O)N[C@@H](CCC(=O)O)C(=O)N[C@@H](CCCCN)C(=O)N[C@H](C(=O)N[C@@H](CC(N)=O)C(=O)N[C@@H](CCC(N)=O)C(=O)N[C@@H](CO)C(=O)N[C@@H](CC(C)C)C(=O)N[C@@H](CCC(=O)O)C(=O)N[C@@H](CCC(=O)O)C(=O)N[C@H](C(=O)N[C@@H](CCCNC(=N)N)C(=O)N[C@@H](CCCCN)C(=O)N[C@@H](CO)C(=O)N[C@@H](CC(=O)O)C(=O)N[C@@H](CCC(=O)O)C(=O)N[C@@H](CC(C)C)C(=O)N[C@@H](CC(C)C)C(=O)N[C@@H](Cc1c[nH]cn1)C(=O)N[C@@H](CC(N)=O)C(=O)N[C@@H](CC(N)=O)C(=O)N[C@@H](C)C(=O)N[C@@H](CC(C)C)C(=O)N[C@@H](CCC(=O)O)C(=O)N[C@@H](C)C(=O)N[C@@H](C)C(=O)N[C@@H](C)C(=O)N[C@@H](CCCCN)C(=O)N[C@@H](CCCCNC(=O)CCC(=O)OC1CCC2(C)C(=CCC3C2CCC2(C)C(C(C)CCCC(C)C)CCC32)C1)C(N)=O)[C@@H](C)CC)[C@@H](C)CC` (some centres unmarked) [Compound 39] (Ac-WDEFDASISQNEKINQSLEEIRKSDELLHNNALEAAAKK(X1)-NH2), the CC50 at 1 day in data set [1] is more than 100 µM. In the data set with RSV A long virus strain, the IC50 was found to be 0.113 µM.
